Reference: US8765944B2, “Compounds for the treatment of hepatitis C” (priority 2010, dated 2014)

What follows are compounds tested on HCV pseudoparticles (assay: HCV pseudoparticle infection assay (luciferase reporter, Huh7 cells)). Conditions: Hepatitis C virus, genotype 1b, Huh-7, 48 h, HCV pseudoparticles (genotype 1b), luciferase activity 2 days after infection.
Assay type: cell-based, HCV (genotype 1b E1 and E2 envelope)

SMILES | EC50 [nM]
C=CS(=O)(=O)NC(=O)CCCNC(=O)c1ccc(Nc2nc(NC3(c4ccc(Cl)cc4)CC3)nc(OCC(F)(F)F)n2)cc1 [Example 2017] | 3.2
C=C[C@@H]1C[C@]1(NC(=O)CCCNC(=O)c1ccc(Nc2nc(NC3(c4ccc(Cl)cc4)CC3)nc(OCC(F)(F)F)n2)cc1)C(=O)NS(=O)(=O)C1CC1 [Example 2032] | 1.3
O=C(CCCNC(=O)c1ccc(Nc2nc(NC3(c4ccc(Cl)cc4)CC3)nc(OCC(F)(F)F)n2)cc1)N[C@]1(C(=O)NS(=O)(=O)C2(C(F)F)CC2)C[C@H]1C1CC1 [Example 2045] | 0.72

Same assay, conditions: Hepatitis C virus, genotype 1b, Huh-7, 48 h, HCV pseudoparticles (genotype 1b), luciferase activity 2 days after infection, class

SMILES | EC50 [nM]
CCS(=O)(=O)NC(=O)CCCCNC(=O)c1ccc(Nc2nc(NC3(c4ccc(Cl)cc4)CC3)nc(OCC(F)(F)F)n2)cc1 [Example 2014] | 0.5 to 100
C=CS(=O)(=O)NC(=O)CCCCNC(=O)c1ccc(Nc2nc(NC3(c4ccc(Cl)cc4)CC3)nc(OCC(F)(F)F)n2)cc1 [Example 2015] | 0.5 to 100
C=CS(=O)(=O)NC(=O)CCNC(=O)c1ccc(Nc2nc(NC3(c4ccc(Cl)cc4)CC3)nc(OCC(F)(F)F)n2)cc1 [Example 2016] | 0.5 to 100
C=CS(=O)(=O)NC(=O)CCCNC(=O)c1ccc(Nc2nc(NC3(c4ccc(Cl)cc4)CC3)nc(OCC(F)(F)F)n2)cc1 [Example 2017] | 0.5 to 100
CS(=O)(=O)NC(=O)CCNC(=O)c1ccc(Nc2nc(NC3(c4ccc(Cl)cc4)CC3)nc(OCC(F)(F)F)n2)cc1 [Example 2018] | 0.5 to 100
CS(=O)(=O)NC(=O)CCCNC(=O)c1ccc(Nc2nc(NC3(c4ccc(Cl)cc4)CC3)nc(OCC(F)(F)F)n2)cc1 [Example 2019] | 0.5 to 100
CC(C)S(=O)(=O)NC(=O)CCNC(=O)c1ccc(Nc2nc(NC3(c4ccc(Cl)cc4)CC3)nc(OCC(F)(F)F)n2)cc1 [Example 2020] | 0.5 to 100
O=C(CCNC(=O)c1ccc(Nc2nc(NC3(c4ccc(Cl)cc4)CC3)nc(OCC(F)(F)F)n2)cc1)NS(=O)(=O)C1CC1 [Example 2021] | 0.5 to 100
CN(C)S(=O)(=O)NC(=O)CCNC(=O)c1ccc(Nc2nc(NC3(c4ccc(Cl)cc4)CC3)nc(OCC(F)(F)F)n2)cc1 [Example 2022] | 0.5 to 100
CC(C)S(=O)(=O)NC(=O)CCCNC(=O)c1ccc(Nc2nc(NC3(c4ccc(Cl)cc4)CC3)nc(OCC(F)(F)F)n2)cc1 [Example 2023] | 0.5 to 100
O=C(CCCNC(=O)c1ccc(Nc2nc(NC3(c4ccc(Cl)cc4)CC3)nc(OCC(F)(F)F)n2)cc1)NS(=O)(=O)C1CC1 [Example 2024] | 0.5 to 100
CN(C)S(=O)(=O)NC(=O)CCCNC(=O)c1ccc(Nc2nc(NC3(c4ccc(Cl)cc4)CC3)nc(OCC(F)(F)F)n2)cc1 [Example 2025] | 0.5 to 100
C=C[C@@H]1C[C@]1(NC(=O)CCCCNC(=O)c1ccc(Nc2nc(NC3(c4ccc(Cl)cc4)CC3)nc(OCC(F)(F)F)n2)cc1)C(=O)NS(=O)(=O)C1CCC1 [Example 2026] | 0.5 to 100
C=C[C@@H]1C[C@]1(NC(=O)CCCCNC(=O)c1ccc(Nc2nc(NC3(c4ccc(Cl)cc4)CC3)nc(OCC(F)(F)F)n2)cc1)C(=O)NS(=O)(=O)C(C)(C)C [Example 2027] | 0.5 to 100
O=C(CCCCNC(=O)c1ccc(Nc2nc(NC3(c4ccc(Cl)cc4)CC3)nc(OCC(F)(F)F)n2)cc1)NS(=O)(=O)C1CCC1 [Example 2028] | 0.5 to 100
O=C(CCCCNC(=O)c1ccc(Nc2nc(NC3(c4ccc(Cl)cc4)CC3)nc(OCC(F)(F)F)n2)cc1)NC1(C(=O)NS(=O)(=O)C2CC2)CC1 [Example 2029] | 0.5 to 100
CN(C)S(=O)(=O)NC(=O)CCCCNC(=O)c1ccc(Nc2nc(NC3(c4ccc(Cl)cc4)CC3)nc(OCC(F)(F)F)n2)cc1 [Example 2030] | 0.5 to 100
C=C[C@@H]1C[C@]1(NC(=O)CCCCNC(=O)c1ccc(Nc2nc(NC3(c4ccc(Cl)cc4)CC3)nc(OCC(F)(F)F)n2)cc1)C(=O)NS(=O)(=O)C1CC1 [Example 2031] | 0.5 to 100

SMILES | EC50 [nM]
C=C[C@@H]1C[C@]1(NC(=O)CCCNC(=O)c1ccc(Nc2nc(NC3(c4ccc(Cl)cc4)CC3)nc(OCC(F)(F)F)n2)cc1)C(=O)NS(=O)(=O)C1CC1 [Example 2032] | 0.5 to 100
O=C(CCCNC(=O)c1ccc(Nc2nc(NC3(c4ccc(Cl)cc4)CC3)nc(OCC(F)(F)F)n2)cc1)NC1(C(=O)NS(=O)(=O)C2CC2)CC1 [Example 2033] | 0.5 to 100
C=C[C@@H]1C[C@]1(NC(=O)CCCNC(=O)c1ccc(Nc2nc(NC3(c4ccc(Cl)cc4)CC3)nc(OCC(F)(F)F)n2)cc1)C(=O)NS(=O)(=O)C(C)(C)C [Example 2035] | 0.5 to 100
O=C(CCCNC(=O)c1ccc(Nc2nc(NC3(c4ccc(Cl)cc4)CC3)nc(OCC(F)(F)F)n2)cc1)N[C@]1(C(=O)NS(=O)(=O)C2CC2)C[C@H]1C1CC1 [Example 2036] | 0.5 to 100
O=C(CCCNC(=O)c1ccc(Nc2nc(NC3(c4ccc(Cl)cc4)CC3)nc(OCC(F)(F)F)n2)cc1)N[C@]1(C(=O)NS(=O)(=O)C2CC2)C[C@H]1C1CC1(F)F (stereo partly drawn) [Example 2037] | 0.5 to 100
O=C(CCCNC(=O)c1ccc(Nc2nc(NC3(c4ccc(Cl)cc4)CC3)nc(OCC(F)(F)F)n2)cc1)N[C@]1(C(=O)NS(=O)(=O)C2CC2)C[C@H]1C(F)F [Example 2038] | 0.5 to 100
CS(=O)(=O)NC(=O)[C@@]1(NC(=O)CCCNC(=O)c2ccc(Nc3nc(NC4(c5ccc(Cl)cc5)CC4)nc(OCC(F)(F)F)n3)cc2)C[C@H]1C1CC1 [Example 2039, 4-(4-(1-(4-chlorophenyl)cyclopropylamino)-6-(2,2,2-trifluoroethoxy)-1,3,5-triazin-2-ylamino)-N-(4-((1S,2R)-2-(methylsulfonylcarbamoyl)bi(cyclopropan)-2-ylamino)-4-oxobutyl)benzamide] | 0.5 to 100
C=CS(=O)(=O)NC(=O)[C@@]1(NC(=O)CCCNC(=O)c2ccc(Nc3nc(NC4(c5ccc(Cl)cc5)CC4)nc(OCC(F)(F)F)n3)cc2)C[C@H]1C1CC1 [Example 2040] | 0.5 to 100
CC(C)S(=O)(=O)NC(=O)[C@@]1(NC(=O)CCCNC(=O)c2ccc(Nc3nc(NC4(c5ccc(Cl)cc5)CC4)nc(OCC(F)(F)F)n3)cc2)C[C@H]1C1CC1 [Example 2041] | 0.5 to 100
O=C(CCCNC(=O)c1ccc(Nc2nc(NC3(c4ccc(Cl)cc4)CC3)nc(OCC(F)(F)F)n2)cc1)N[C@]1(C(=O)NS(=O)(=O)C2CCC2)C[C@H]1C1CC1 [Example 2042] | 0.5 to 100
CN(C)S(=O)(=O)NC(=O)[C@@]1(NC(=O)CCCNC(=O)c2ccc(Nc3nc(NC4(c5ccc(Cl)cc5)CC4)nc(OCC(F)(F)F)n3)cc2)C[C@H]1C1CC1 [Example 2043] | 0.5 to 100
O=C(CCCNC(=O)c1ccc(Nc2nc(NC3(c4ccc(Cl)cc4)CC3)nc(OCC(F)(F)F)n2)cc1)N[C@]1(C(=O)NS(=O)(=O)C2(F)CC2)C[C@H]1C1CC1 [Example 2044] | 0.5 to 100
O=C(CCCNC(=O)c1ccc(Nc2nc(NC3(c4ccc(Cl)cc4)CC3)nc(OCC(F)(F)F)n2)cc1)N[C@]1(C(=O)NS(=O)(=O)C2(C(F)F)CC2)C[C@H]1C1CC1 [Example 2045] | 0.5 to 100
CS(=O)(=O)NC(=O)[C@@]1(NC(=O)CCCNC(=O)c2ccc(Nc3nc(NC4(c5ccc(Cl)cc5)CC4)nc(OCC(F)(F)F)n3)cc2)C[C@H]1C1CC1(F)F (stereo partly drawn) [Example 2046] | 0.5 to 100
CCS(=O)(=O)NC(=O)[C@@]1(NC(=O)CCCNC(=O)c2ccc(Nc3nc(NC4(c5ccc(Cl)cc5)CC4)nc(OCC(F)(F)F)n3)cc2)C[C@H]1C1CC1(F)F (stereo partly drawn) [Example 2047] | 0.5 to 100
CC(C)S(=O)(=O)NC(=O)[C@@]1(NC(=O)CCCNC(=O)c2ccc(Nc3nc(NC4(c5ccc(Cl)cc5)CC4)nc(OCC(F)(F)F)n3)cc2)C[C@H]1C1CC1(F)F (stereo partly drawn) [Example 2048] | 0.5 to 100
CN(C)S(=O)(=O)NC(=O)[C@@]1(NC(=O)CCCNC(=O)c2ccc(Nc3nc(NC4(c5ccc(Cl)cc5)CC4)nc(OCC(F)(F)F)n3)cc2)C[C@H]1C1CC1(F)F (stereo partly drawn) [Example 2049] | 0.5 to 100
CC(C)(C)S(=O)(=O)NC(=O)[C@@]1(NC(=O)CCCNC(=O)c2ccc(Nc3nc(NC4(c5ccc(Cl)cc5)CC4)nc(OCC(F)(F)F)n3)cc2)C[C@H]1C1CC1(F)F (stereo partly drawn) [Example 2050] | 0.5 to 100
